Laboratory results from US10208019B2, “GLP-1 receptor agonists and uses thereof” (Pfizer Inc., priority 2016, dated 2019).

Columns and labels:
human GLP-1R [1] = biological target: human GLP-1R (Homo sapiens (Human), UniProt P43220, L260F); test: CHO GLP-1R Clone C6—Assay 2: HTRF cAMP cell-based functional agonist assay (low GLP-1R density); conditions: for EC50: CHO GLP-1R Clone C6, cAMP HTRF, geometric mean; for Emax: read-out: Assay 2 Emax (%)
human GLP-1R [2] = biological target: human GLP-1R (Homo sapiens, UniProt P43220, G168S); test: CHO GLP-1R Clone H6—Assay 1: HTRF cAMP cell-based functional agonist assay (high GLP-1R density); conditions: for EC50: read-out: Assay 1 EC50, CHO GLP-1R Clone H6, cAMP HTRF, geometric mean; for Emax: read-out: Assay 1 Emax (%), CHO GLP-1R Clone H6
Procedure: GLP-1R-mediated agonist activity was determined with a cell-based functional assay utilizing an HTRF (Homogeneous Time-Resolved Fluorescence) cAMP detection kit (cAMP HI Range Assay Kit; CisBio cat #62AM6PEJ) that measures cAMP levels in the cell. The method is a competitive immunoassay between native cAMP produced by the cells and exogenous cAMP labeled with the dye d2. The tracer binding is visualized by a mAb anti-cAMP labeled with Cryptate. The specific signal (i.e. energy transfer) is inversely proportional to the concentration of cAMP in either standard or experimental sample.
The human GLP-1R coding sequence (NCBI Reference Sequence NP_002053.3, including naturally-occurring variant Gly168Ser) was subcloned into pcDNA3 (Invitrogen) and a cell line stably expressing the receptor was isolated (designated Clone H6).
Cells were removed from cryopreservation, re-suspended in 40 mL of Dulbecco's Phosphate Buffered Saline (DPBS-Lonza Cat #17-512Q) and centrifuged at 800×g for 5 min at 22° C. The cell pellet was then re-suspended in 10 mL of growth medium [DMEM/F12 1:1 Mixture with HEPES, L-Gln, 500 mL (DMEM/F12 Lonza Cat #12-719F), 10% heat inactivated fetal bovine serum (Gibco Cat #16140-071), 5 mL of 100× Pen-Strep (Gibco Cat #15140-122), 5 mL of 100× L-Glutamine (Gibco Cat #25030-081) and 500 μg/mL Geneticin (G418) (Invitrogen #10131035)]. A 1 mL sample of the cell suspension in growth media was counted on a Becton Dickinson ViCell to determine cell viability and cell count per mL. The remaining cell suspension was then adjusted with growth media to deliver 2000 viable cells per well using a Matrix Combi Multidrop reagent dispenser, and the cells were dispensed into a white 384 well tissue culture treated assay plate (Corning 3570). The assay plate was then incubated for 48 hours at 37° C. in a humidified environment in 5% carbon dioxide.
Varying concentrations of each compound to be tested (in DMSO) were diluted in assay buffer (HBSS with Calcium/Magnesium (Lonza/BioWhittaker cat #10-527F)/0.1% BSA (Sigma Aldrich cat #A7409-1L)/20 mM HEPES (Lonza/BioWhiftaker cat #17-737E) containing 100 μM 3-isobutyl-1-methylxanthin (IBMX; Sigma cat #15879). The final DMSO concentration is 1%.
After 48 hours, the growth media was removed from the assay plate wells, and the cells were treated with 20 μL of the serially diluted compound in assay buffer for 30 minutes at 37° C. in a humidified environment in 5% carbon dioxide. Following the 30 minute incubation, 10 μL of labeled d2 cAMP and 10 μL of anti-cAMP antibody (both diluted 1:20 in cell lysis buffer; as described in the manufacturer's assay protocol) were added to each well of the assay plate. The plates were then incubated at room temperature and after 60 minutes, changes in the HTRF signal were read with an Envision 2104 multi-label plate reader using excitation of 330 nm and emissions of 615 and 665 nm. Raw data were converted to nM cAMP by interpolation from a cAMP standard curve (as described in the manufacturer's assay protocol) and the percent effect was determined relative to a saturating concentration of the full agonist GLP-17-36 (1 μM) included on each plate. EC50 determinations were made from agonist dose-response curves analyzed with a curve fitting program using a 4-parameter logistic dose response equation.

[3] = CHO GLP-1R Clone C6, relative to saturating concentration of full agonist GLP-1 (1 μM), arithmetic mean
[4] = relative to saturating concentration of full agonist GLP-1 (1 μM), arithmetic mean

Sequence of human GLP-1R (Homo sapiens, UniProt P43220, G168S) (P43220 24-463 G168S limits assumed): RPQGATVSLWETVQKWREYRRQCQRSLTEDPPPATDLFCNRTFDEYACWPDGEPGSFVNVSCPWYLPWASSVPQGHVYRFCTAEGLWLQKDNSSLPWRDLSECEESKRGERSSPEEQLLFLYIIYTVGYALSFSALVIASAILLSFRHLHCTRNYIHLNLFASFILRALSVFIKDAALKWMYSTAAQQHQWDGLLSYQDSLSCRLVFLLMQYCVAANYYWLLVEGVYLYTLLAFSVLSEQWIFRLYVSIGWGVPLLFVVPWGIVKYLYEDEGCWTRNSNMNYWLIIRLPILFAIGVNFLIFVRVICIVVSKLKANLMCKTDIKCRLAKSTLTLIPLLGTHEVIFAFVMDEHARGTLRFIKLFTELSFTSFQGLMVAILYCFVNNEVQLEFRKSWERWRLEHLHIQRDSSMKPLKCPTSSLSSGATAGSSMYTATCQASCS
Sequence of human GLP-1R (Homo sapiens (Human), UniProt P43220, L260F) (P43220 24-463 L260F): as the sequence (P43220 24-463 G168S limits assumed) above, with S145G, L237F counted along it

Question: With `COCCn1c(CN2CCC(c3cccc(OCc4ccc(Cl)cc4F)n3)CC2)nc2ccc(C(=O)O)c(F)c21` [Example 2A-08, 2-[(4-{6-[(4-chloro-2-fluorobenzyl)oxy]pyridin-2-yl}piperidin-1-yl)methyl]-7-fluoro-1-(2-methoxyethyl)-1H-benzimidazole-6-carboxylic acid] as the compound, how does the EC50 (human GLP-1R [1]) read?
Answer: Its EC50 is 94 nM.

Question: And the Emax (human GLP-1R [1]; [3])?
Answer: Its Emax is 76%.

Question: What about the EC50 (human GLP-1R [2]) of the same compound?
Answer: Its EC50 is 5.8 nM.

Question: And the Emax (human GLP-1R [2]; [4])?
Answer: Its Emax is 72%.

Question: Which EC50 (human GLP-1R [1]) does the source give for `COCCn1c(CN2CCN(c3cccc(OCc4ccc(Cl)cc4F)n3)C[C@@H]2C)nc2ccc(C(=O)O)cc21` [Example 12A-10, 2-{[(2S)-4-{6-[(4-chloro-2-fluorobenzyl)oxy]pyridin-2-yl}-2-methylpiperazin-1-yl]methyl]-1-(2-methoxyethyl)-1H-benzimidazole-6-carboxylic acid] here?
Answer: The EC50 was 170 nM.

Question: What about the Emax (human GLP-1R [1]; [3]) of the same compound?
Answer: Its Emax is 96%.

Question: And the EC50 (human GLP-1R [2])?
Answer: The EC50 was 6.9 nM.

Question: And the Emax (human GLP-1R [2]; [4])?
Answer: Its Emax is 78%.

Question: For `O=C(O)c1ccc2nc(CN3CCC(c4cccc(OCc5ccc(Cl)cc5F)n4)CC3)n(C[C@H]3CCO3)c2n1` [Example 2A-22, 2-[(4-{6-[(4-chloro-2-fluorobenzyl)oxy]pyridin-2-yl}piperidin-1-yl)methyl]-3-[(2R)-oxetan-2-ylmethyl]-3H-imidazo[4,5-b]pyridine-5-carboxylic acid], which EC50 (human GLP-1R [1]) is on record?
Answer: The EC50 was 190 nM.

Question: And the Emax (human GLP-1R [1]; [3])?
Answer: The Emax was 83%.

Question: And the EC50 (human GLP-1R [2])?
Answer: The EC50 was 14 nM.

Question: What about the Emax (human GLP-1R [2]; [4]) of the same compound?
Answer: Its Emax is 72%.

Question: Which EC50 (human GLP-1R [1]) does the source give for `N#Cc1ccc(COc2cccc(C3CCN(Cc4nc5ccc(C(=O)O)cc5n4C[C@@H]4CCCO4)CC3)n2)c(F)c1` [Example 1A-21, 2-[(4-{6-[(4-cyano-2-fluorobenzyl)oxy]pyridin-2-yl}piperidin-1-yl)methyl]-1-[(2S)-tetrahydrofuran-2-ylmethyl]-1H-benzimidazole-6-carboxylic acid] here?
Answer: Its EC50 is 75 nM.

Question: And the Emax (human GLP-1R [1]; [3])?
Answer: Its Emax is 83%.

Question: And the EC50 (human GLP-1R [2])?
Answer: Its EC50 is 4.9 nM.

Question: What about the Emax (human GLP-1R [2]; [4]) of the same compound?
Answer: Its Emax is 77%.

Question: `O=C(O)c1ccc2nc(CN3CCC(c4cccc(OCc5ccc(Cl)cc5F)n4)CC3)n(CCN3CCOC3=O)c2c1` [Example 11A-20] was tested. Which EC50 (human GLP-1R [1]) did it give?
Answer: The EC50 was 270 nM.

Question: What about the EC50 (human GLP-1R [2]) of the same compound?
Answer: The EC50 was 15 nM.

Question: How did the Emax (human GLP-1R [1]; [3]) turn out when `N#Cc1ccc(COc2cccc(C3CCN(Cc4nc5ccc(C(=O)O)cc5n4Cc4ncco4)CC3)n2)c(F)c1` [Example 7A-01, 2-[(4-{6-[(4-cyano-2-fluorobenzyl)oxy]pyridin-2-yl}piperidin-1-yl)methyl]-1-(1,3-oxazol-2-ylmethyl)-1H-benzimidazole-6-carboxylic acid] was run?
Answer: Its Emax is 86%.

Question: And the Emax (human GLP-1R [2]; [4])?
Answer: The Emax was 84%.

Question: What does the source list for `COCCn1c(CN2CCC(c3cccc(OCc4ccc(C#N)cc4)n3)CC2)nc2ccc(C(=O)O)c(F)c21` [Example 2A-15, 2-[(4-{6-[(4-cyanobenzyl)oxy]pyridin-2-yl}piperidin-1-yl)methyl]-7-fluoro-1-(2-methoxyethyl)-1H-benzimidazole-6-carboxylic acid]?
Answer: EC50 (human GLP-1R [1]): 280 nM; Emax (human GLP-1R [1]; [3]): 91%; EC50 (human GLP-1R [2]): 22 nM; Emax (human GLP-1R [2]; [4]): 87%

Question: How did the EC50 (human GLP-1R [1]) turn out when `N#Cc1ccc(COc2nc(C3CCN(Cc4nc5ccc(C(=O)O)cc5n4C[C@@H]4CCO4)CC3)ccc2F)c(F)c1` [Example 10A-54, 2-[(4-{6-[(4-cyano-2-fluorobenzyl)oxy]-5-fluoropyridin-2-yl}piperidin-1-yl)methyl]-1-[(2S)-oxetan-2-ylmethyl]-1H-benzimidazole-6-carboxylic acid] was run?
Answer: The EC50 was 11 nM.

Question: What about the Emax (human GLP-1R [1]; [3]) of the same compound?
Answer: Its Emax is 100%.

Question: And the EC50 (human GLP-1R [2])?
Answer: Its EC50 is 0.71 nM.

Question: And the Emax (human GLP-1R [2]; [4])?
Answer: The Emax was 81%.

Question: What does the source list for `COCCn1cnnc1Cn1c(CN2CCC(c3cccc(OCc4ccc(Cl)cc4F)n3)CC2)nc2ccc(C(=O)O)cc21` [Example 11A-19, 2-[(4-{6-[(4-chloro-2-fluorobenzyl)oxy]pyridin-2-yl}piperidin-1-yl)methyl]-1-{[4-(2-methoxyethyl)-4H-1,2,4-triazol-3-yl]methyl}-1H-benzimidazole-6-carboxylic acid]?
Answer: EC50 (human GLP-1R [1]): 230 nM; Emax (human GLP-1R [1]; [3]): 110%; EC50 (human GLP-1R [2]): 15 nM; Emax (human GLP-1R [2]; [4]): 83%

Question: How did the EC50 (human GLP-1R [1]) turn out when `C[C@H]1CN(c2cccc(OCc3ccc(C#N)cc3F)n2)CCN1Cc1nc2ccc(C(=O)O)nc2n1Cc1ncco1` [Example 2A-21, 2-{[(2S)-4-{6-[(4-cyano-2-fluorobenzyl)oxy]pyridin-2-yl}-2-methylpiperazin-1-yl]methyl}-3-(1,3-oxazol-2-ylmethyl)-3H-imidazo[4,5-b]pyridine-5-carboxylic acid] was run?
Answer: The EC50 was 220 nM.

Question: What about the Emax (human GLP-1R [1]; [3]) of the same compound?
Answer: Its Emax is 110%.

Question: What about the EC50 (human GLP-1R [2]) of the same compound?
Answer: Its EC50 is 8.5 nM.

Question: What about the Emax (human GLP-1R [2]; [4]) of the same compound?
Answer: The Emax was 88%.

Question: How did the EC50 (human GLP-1R [1]) turn out when `N#Cc1ccc(COc2cccc(C3CCN(Cc4nc5ccc(C(=O)O)cc5n4Cc4ccon4)CC3)n2)c(F)c1` [Example 10A-65, 2-[(4-{6-[(4-cyano-2-fluorobenzyl)oxy]pyridin-2-yl}piperidin-1-yl)methyl]-1-(1,2-oxazol-3-ylmethyl)-1H-benzimidazole-6-carboxylic acid] was run?
Answer: Its EC50 is 35 nM.

Question: What about the Emax (human GLP-1R [1]; [3]) of the same compound?
Answer: Its Emax is 78%.

Question: What about the EC50 (human GLP-1R [2]) of the same compound?
Answer: The EC50 was 1.6 nM.

Question: And the Emax (human GLP-1R [2]; [4])?
Answer: The Emax was 84%.

Question: With `N#Cc1ccc(COc2cccc(C3CCN(Cc4nc5ccc(C(=O)O)cc5n4CC4CCCO4)CC3)n2)cc1` (single isomer, unassigned; enantiomer 1) [Example 14A-01, 2-[(4-{6-[(4-cyanobenzyl)oxy]pyridin-2-yl}piperidin-1-yl)methyl]-1-(tetrahydrofuran-2-ylmethyl)-1H-benzimidazole-6-carboxylic acid,enantiomer 1] as the compound, how does the EC50 (human GLP-1R [1]) read?
Answer: The EC50 was 200 nM.

Question: What about the “Assay 2 Emax (%)” value (human GLP-1R [1]; [3]) of the same compound?
Answer: Its value is 89%.

Question: And the EC50 (human GLP-1R [2])?
Answer: The EC50 was 5.6 nM.

Question: With `CC[C@H]1CN(c2cccc(OCc3ccc(Cl)cc3F)n2)CCN1Cc1nc2ccc(C(=O)O)cc2n1CCOC` [Example 12A-07, 2-{[(2S)-4-{6-[(4-chloro-2-fluorobenzyl)oxy]pyridin-2-yl}-2-ethylpiperazin-1-yl]methyl}-1-(2-methoxyethyl)-1H-benzimidazole-6-carboxylic acid] as the compound, how does the EC50 (human GLP-1R [1]) read?
Answer: The EC50 was 1200 nM.

Question: What about the Emax (human GLP-1R [1]; [3]) of the same compound?
Answer: The Emax was 83%.

Question: And the EC50 (human GLP-1R [2])?
Answer: The EC50 was 37 nM.

Question: What about the Emax (human GLP-1R [2]; [4]) of the same compound?
Answer: Its Emax is 69%.

Question: Which results are given for `CCCn1cnnc1Cn1c(CN2CCC(c3cccc(OCc4ccc(Cl)cc4F)n3)CC2)nc2ccc(C(=O)O)cc21` [Example 1A-18, 2-[(4-{6-[(4-chloro-2-fluorobenzyl)oxy]pyridin-2-yl}piperidin-1-yl)methyl]-1-[(4-propyl-4H-1,2,4-triazol-3-yl)methyl]-1H-benzimidazole-6-carboxylic acid]?
Answer: EC50 (human GLP-1R [1]): 110 nM; Emax (human GLP-1R [1]; [3]): 94%; EC50 (human GLP-1R [2]): 6.4 nM; Emax (human GLP-1R [2]; [4]): 90%

Question: Which EC50 (human GLP-1R [1]) does the source give for `Cn1c(CN2CCC(c3cccc(OCc4ccc(Cl)cc4)n3)CC2)nc2ccc(C(=O)O)cc21` [Example 9A-07, 2-[(4-{6-[(4-chlorobenzyl)oxy]pyridin-2-yl}piperidin-1-yl)methyl]-1-methyl-1H-benzimidazole-6-carboxylic acid] here?
Answer: The EC50 was 2100 nM.

Question: And the Emax (human GLP-1R [1]; [3])?
Answer: Its Emax is 71%.

Question: What about the “Assay 1 Emax (%)” value (human GLP-1R [2]; CHO GLP-1R Clone H6, relative to saturating concentration of full agonist GLP-1 (1 μM), arithmetic mean) of the same compound?
Answer: The value was 78%.

Question: And the EC50 (human GLP-1R [2])?
Answer: Its EC50 is 170 nM.

Question: Which results are given for `CCn1cnnc1Cn1c(CN2CCC(c3cccc(OCc4ccc(Cl)cc4F)n3)CC2)nc2ccc(C(=O)O)cc21` [Example 10A-07]?
Answer: EC50 (human GLP-1R [1]): 68 nM; Emax (human GLP-1R [1]; [3]): 81%; EC50 (human GLP-1R [2]): 2.8 nM; Emax (human GLP-1R [2]; [4]): 82%

Question: What does the source list for `Cn1c(CN2CCC(c3cccc(OCc4ccc(Cl)cc4F)n3)CC2)nc2cc(Cl)c(C(=O)O)cc21` [Example 2A-13, 5-chloro-2-[(4-{6-[(4-chloro-2-fluorobenzyl)oxy]pyridin-2-yl}piperidin-1-yl)methyl]-1-methyl-1H-benzimidazole-6-carboxylic acid]?
Answer: EC50 (human GLP-1R [1]): > 15000 nM; Emax (human GLP-1R [1]; [3]): 100%; EC50 (human GLP-1R [2]): 770 nM; Emax (human GLP-1R [2]; [4]): 78%

Question: Which results are given for `Cn1c(CN2CCC(c3cccc(OCc4ccc(Cl)cc4F)n3)CC2)nc2ncc(C(=O)O)cc21` [Example 2A-04, 2-[(4-{6-[(4-chloro-2-fluorobenzyl)oxy]pyridin-2-yl}piperidin-1-yl)methyl]-1-methyl-1H-imidazo[4,5-b]pyridine-6-carboxylic acid]?
Answer: EC50 (human GLP-1R [1]): 150 nM; Emax (human GLP-1R [1]; [3]): 92%; EC50 (human GLP-1R [2]): 36 nM; Emax (human GLP-1R [2]; [4]): 84%
